Measurements as given in PubChem BioAssay AID1963849 (Molecular Pharmacology Branch, DTP, NCI, 2024).

System: 299254-011-R-J1-PDC complex spheroid viability
Assay: Anticancer human tumor 299254-011-R-J1-PDC patient-derived melanoma cell line growth inhibition [POLQ]
Settings: for IC50: curve of first compound; for viability, T/C: stronger effect = lower value
How it was run: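 Patient-derived tumour cells were co-cultured with HUVEC and mesenchymal stem cells as multicellular spheroids at 37 °C. They were treated with POLQ inhibitors (novobiocin, ART-558, RP6685) alone or combined with other agents. Top concentrations were at or near clinical Cmax (otherwise 10 microM; SN-38 at 1 microM), decreasing in half-log steps.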

[1] = second compound 0.0316 µM, first compound 0.0316 µM
[2] = second compound 0.0316 µM, first compound 0.1 µM
[3] = second compound 0.0316 µM, first compound 0.316 µM
[4] = second compound 0.0316 µM, first compound 1 µM
[5] = second compound 0.0316 µM, first compound 3.16 µM
[6] = second compound 0.0316 µM, first compound 10 µM
[7] = second compound 0.1 µM, first compound 0.0316 µM
[8] = second compound 0.1 µM, first compound 0.1 µM
[9] = second compound 0.1 µM, first compound 0.316 µM
[10] = second compound 0.1 µM, first compound 1 µM
[11] = second compound 0.1 µM, first compound 3.16 µM
[12] = second compound 0.1 µM, first compound 10 µM
[13] = second compound 0.316 µM, first compound 0.0316 µM
[14] = second compound 0.316 µM, first compound 0.1 µM
[15] = second compound 0.316 µM, first compound 0.316 µM
[16] = second compound 0.316 µM, first compound 1 µM
[17] = second compound 0.316 µM, first compound 3.16 µM
[18] = second compound 0.316 µM, first compound 10 µM
[19] = second compound 1 µM, first compound 0.0316 µM
[20] = second compound 1 µM, first compound 0.1 µM
[21] = second compound 1 µM, first compound 0.316 µM
[22] = second compound 1 µM, first compound 1 µM
[23] = second compound 1 µM, first compound 3.16 µM
[24] = second compound 1 µM, first compound 10 µM
[25] = second compound 3.16 µM, first compound 0.0316 µM
[26] = second compound 3.16 µM, first compound 0.1 µM
[27] = second compound 3.16 µM, first compound 0.316 µM
[28] = second compound 3.16 µM, first compound 1 µM
[29] = second compound 3.16 µM, first compound 3.16 µM
[30] = second compound 3.16 µM, first compound 10 µM
[31] = second compound 10 µM, first compound 0.0316 µM
[32] = second compound 10 µM, first compound 0.1 µM
[33] = second compound 10 µM, first compound 0.316 µM
[34] = second compound 10 µM, first compound 1 µM
[35] = second compound 10 µM, first compound 3.16 µM
[36] = second compound 10 µM, first compound 10 µM
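Note: spheroids exposed to drugs for one week before measurement.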
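Throughout, for viability, T/C: percent viability relative to DMSO vehicle control taken as 100%.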

## O=c1[nH]cc(F)c(=O)[nH]1 + Nc1ccc(C#CCN(C(=O)Cc2ncc(C(F)(F)F)cc2C(F)(F)F)c2ccc(F)cc2)nn1
Second compound 0.0316 µM
  IC50: > 10 µM
Second compound 0.1 µM
  IC50: > 10 µM
Second compound 0.316 µM
  IC50: > 10 µM
Second compound 1 µM
  IC50: > 10 µM
Second compound 3.16 µM
  IC50: > 10 µM
Second compound 10 µM
  IC50: > 10 µM
[1]
  viability, T/C: 92.7%
[2]
  viability, T/C: 111%
[3]
  viability, T/C: 101%
[4]
  viability, T/C: 113%
[5]
  viability, T/C: 89.8%
[6]
  viability, T/C: 81.4%
[7]
  viability, T/C: 103%
[8]
  viability, T/C: 91.2%
[9]
  viability, T/C: 119%
[10]
  viability, T/C: 87%
[11]
  viability, T/C: 82.5%
[12]
  viability, T/C: 85.3%
[13]
  viability, T/C: 92%
[14]
  viability, T/C: 93.3%
[15]
  viability, T/C: 101%
[16]
  viability, T/C: 101%
[17]
  viability, T/C: 95.1%
[18]
  viability, T/C: 68%
[19]
  viability, T/C: 116%
[20]
  viability, T/C: 99.8%
[21]
  viability, T/C: 95.1%
[22]
  viability, T/C: 85.6%
[23]
  viability, T/C: 91.5%
[24]
  viability, T/C: 78.5%
[25]
  viability, T/C: 104%
[26]
  viability, T/C: 95%
[27]
  viability, T/C: 101%
[28]
  viability, T/C: 96.8%
[29]
  viability, T/C: 84.3%
[30]
  viability, T/C: 89.5%
[31]
  viability, T/C: 91.1%
[32]
  viability, T/C: 94.2%
[33]
  viability, T/C: 101%
[34]
  viability, T/C: 95.4%
[35]
  viability, T/C: 88.7%
[36]
  viability, T/C: 69.1%

## COc1cc2cc(C(=O)CCC(=O)O)sc2cc1OC + COC1C(OC(N)=O)C(O)C(Oc2ccc3c(O)c(NC(=O)c4ccc(O)c(CC=C(C)C)c4)c(=O)oc3c2C)OC1(C)C
Second compound 0.0316 µM
  IC50: > 10 µM
Second compound 0.1 µM
  IC50: > 10 µM
Second compound 0.316 µM
  IC50: > 10 µM
Second compound 1 µM
  IC50: > 10 µM
Second compound 3.16 µM
  IC50: > 10 µM
Second compound 10 µM
  IC50: > 10 µM
[1]
  viability, T/C: 112%
[2]
  viability, T/C: 98.3%
[3]
  viability, T/C: 106%
[4]
  viability, T/C: 100%
[5]
  viability, T/C: 113%
[6]
  viability, T/C: 102%
[7]
  viability, T/C: 95.8%
[8]
  viability, T/C: 109%
[9]
  viability, T/C: 101%
[10]
  viability, T/C: 116%
[11]
  viability, T/C: 99.2%
[12]
  viability, T/C: 114%
[13]
  viability, T/C: 112%
[14]
  viability, T/C: 93.1%
[15]
  viability, T/C: 104%
[16]
  viability, T/C: 110%
[17]
  viability, T/C: 113%
[18]
  viability, T/C: 109%
[19]
  viability, T/C: 91.8%
[20]
  viability, T/C: 104%
[21]
  viability, T/C: 104%
[22]
  viability, T/C: 109%
[23]
  viability, T/C: 104%
[24]
  viability, T/C: 125%
[25]
  viability, T/C: 108%
[26]
  viability, T/C: 96%
[27]
  viability, T/C: 94%
[28]
  viability, T/C: 110%
[29]
  viability, T/C: 112%
[30]
  viability, T/C: 108%
[31]
  viability, T/C: 103%
[32]
  viability, T/C: 104%
[33]
  viability, T/C: 95%
[34]
  viability, T/C: 107%
[35]
  viability, T/C: 110%
[36]
  viability, T/C: 97.5%
